Results on 16 compounds are retold here after patent US10780092B2, “Fused pyrazine derivatives useful as soluble guanylate cyclase stimulators” (Merck Sharp & Dohme Corp., priority 2016, dated 2020).

One assay concerns the target sGC α1/β1 heterodimer (Homo sapiens (Human), UniProt Q02108+Q02153). As to the kind of experiment: Cell-based sGC functional assay (CASA assay), cGMP by HTRF. To be noted: CHO-K1/sGC cells; for Emax: CHO-K1, cGMP production as percentage of maximum of compound A (set to 100%), read-out: % Activation; for EC50: inflection point of cGMP production, 4P fit, read-out: IP. In short, it runs like this:
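cGMP made in CHO-K1/sGC (human α1/β1) cells is read by HTRF after compound treatment for 1 hr at 37° C, following 30 min at 25° C with or without 1 μM DETA-NO; IBMX 0.5 mM present. Values are % of standard compound maximum; 4P fit.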
On the technique in general: TR-FRET usually uses a lanthanide donor and a delayed reading to cut background.

Assay [1] deals with human recombinant sGC enzyme (Homo sapiens (Human), UniProt Q02108+Q02153). As to the kind of experiment: SEC competition binding assay with [3H] Compound B radioligand. To be noted: displacement of 1.6 nM [3H] Compound B, 24 h at 37° C. Put shortly: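 Competition format: [3H] Compound B (1.6 nM) displaced from human recombinant sGC over 24 h at 37° C. in triethanolamine pH 7.4 buffer with MgCl2, BSA, DTT, 300 μM DETA/NO and 400 μM GTP (1% DMSO). Gel-filtration eluates counted by liquid scintillation; 1 μM Compound B defined non-specific binding; Ki by one-site fit.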

As for `CCCCc1nc(-c2nc(N)c3c(n2)NC(=O)C3(C)c2ccc(Cl)c(O)c2)cn2ncnc12` (stereo not drawn) [Example 50-A, 4-Amino-2-(8-butyl-[1,2,4]triazolo[1,5-a]pyrazin-6-yl)-5-(4-chloro-3-hydroxyphenyl)-5-methyl-5,7-dihydro-6H-pyrrolo[2,3-d]pyrimidin-6-one], on sGC α1/β1 heterodimer, the Emax worked out at 175% and the EC50 came to 70 nM. Moreover, in assay [1], the Ki is 0.775 nM.
For the compound `CC1(c2cccc(O)c2)C(=O)Nc2nc(-c3cn4ccnc4c(Cc4cccc(Cl)c4)n3)nc(N)c21` (stereo not drawn) [Example 124-B, 4-Amino-2-{8-[(3-chlorophenyl)methyl]-imidazo[1,2-a]pyrazin-6-yl}-5-(3-hydroxyphenyl)-5-methyl-5,7-dihydro-6H-pyrrolo[2,3-d]pyrimidin-6-one], at sGC α1/β1 heterodimer, the Emax was 113% and the EC50 amounted to 224 nM. Besides, in assay [1], the Ki came out at 2.63 nM.
In the same order, the values of `CC1(c2ccc(Cl)c(O)c2)C(=O)Nc2nc(-c3cn4ncnc4c(CCCCF)n3)nc(N)c21` (stereo not drawn) [Example 106-A, 4-Amino-5-(4-chloro-3-hydroxyphenyl)-2-(8-(4-fluorobutyl)-[1,2,4]triazolo[1,5-a]pyrazin-6-yl)-5-methyl-5,7-dihydro-6H-pyrrolo[2,3-d]pyrimidin-6-one] are 81%, 902 nM and 1.84 nM.
For `CCCCc1nc(-c2nc(N)c3c(n2)NC(=O)C3(C)c2ccc(Cl)c(O)c2)cn2ccnc12` (stereo not drawn) [Example 52-A, 4-Amino-2-(8-butylimidazo[1,2-a]pyrazin-6-yl)-5-(4-chloro-3-hydroxyphenyl)-5-methyl-5,7-dihydro-6H-pyrrolo[2,3-d]pyrimidin-6-one], in that order: 85%, 144 nM and 0.864 nM.
In the same order, the values of `CC1(c2cc(O)c(C#N)c(Cl)c2)C(=O)Nc2nc(-c3cn4ccnc4c(Cc4ccccc4F)n3)nc(N)c21` (stereo not drawn) [Example 143-A, 4-(4-amino-2-{8-(2-fluorobenzyl)imidazo-[1,2-a]pyrazin-6-yl}-5-methyl-6-oxo-6,7-dihydro-5H-pyrrolo-[2,3-d]pyrimidin-5-yl)-2-chloro-6-hydroxy-benzonitrile] are 79%, 2970 nM and 1.09 nM.
With `CC1(c2cc(O)c(Cl)cn2)C(=O)Nc2nc(-c3cn4ccnc4c(Cc4c(F)cccc4F)n3)nc(N)c21` (stereo not drawn) [Example 98-B, 4-Amino-5-(5-chloro-4-hydroxypyridin-2-yl)-2-{8-[(2,6-difluorophenyl)methyl]imidazo[1,2-a]pyrazin-6-yl}-5-methyl-5,7-dihydro-6H-pyrrolo[2,3-d]pyrimidin-6-one], at sGC α1/β1 heterodimer, the Emax amounted to 73% and the EC50 came out at 3300 nM. For the same compound, the Ki in assay [1] was 8.31 nM.
For `CC1(c2ccc(F)c(Cl)c2O)C(=O)Nc2nc(-c3cn4ccnc4c(Cc4cc(F)cc(F)c4)n3)nc(N)c21` (stereo not drawn) [Example 96-B, 4-Amino-5-(3-chloro-4-fluoro-2-hydroxyphenyl)-2-{8-[(3,5-difluorophenyl)methyl]imidazo[1,2-a]pyrazin-6-yl}-5-methyl-5,7-dihydro-6H-pyrrolo[2,3-d]pyrimidin-6-one], in that order: 169%, 138 nM and 0.862 nM.
In the same order, the values of `CCCCc1nc(-c2nc(N)c3c(n2)NC(=O)C3(C)c2ccc(C(F)(F)F)c(O)c2)cn2ccnc12` (stereo not drawn) [Example 76-B, 4-Amino-2-(8-butylimidazo[1,2-a]pyrazin-6-yl)-5-(3-hydroxy-4-(trifluoromethyl)phenyl)-5-methyl-5,7-dihydro-6H-pyrrolo[2,3-d]pyrimidin-6-one] are 110%, 547 nM and 7.89 nM.
With `CC1(c2ccc(Cl)c(O)c2)C(=O)Nc2nc(-c3cn4ccnc4c(Cc4c(F)cccc4F)n3)nc(N)c21` (stereo not drawn) [Example 90-A, 4-Amino-5-(4-chloro-3-hydroxyphenyl)-2-{8-[(2,6-difluorophenyl)methyl]imidazo[1,2-a]pyrazin-6-yl}-5-methyl-5,7-dihydro-6H-pyrrolo[2,3-d]pyrimidin-6-one], at sGC α1/β1 heterodimer, the Emax is 138% and the EC50 stood at 94 nM. In addition, the Ki in assay [1] was determined as 2.43 nM.
In the same order, the values of `CC1(c2ccc(O)cc2)C(=O)Nc2nc(-c3cn4ccnc4c(CCC(F)(F)C(F)(F)F)n3)nc(N)c21` (stereo not drawn) [Example 81-B, 4-Amino-5-(4-hydroxyphenyl)-5-methyl-2-(8-(3,3,4,4,4-pentafluorobutyl)imidazo[1,2-a]pyrazin-6-yl)-5,7-dihydro-6H-pyrrolo[2,3-d]pyrimidin-6-one] are 131%, 352 nM and 14 nM.
For `CCCCc1nc(-c2nc(N)c3c(n2)NC(=O)C3(C)c2cc(O)ccn2)cn2ncnc12` (stereo not drawn) [Example 118-B, 4-Amino-2-(8-butyl-[1,2,4]triazolo[1,5-a]-pyrazin-6-yl)-5-(4-hydroxypyridin-2-yl)-5-methyl-5,7-dihydro-6H-pyrrolo[2,3-d]-pyrimidin-6-one], in that order: 103%, 457 nM and 7.95 nM.
With `CC1(c2ccc(Cl)c(O)c2)C(=O)Nc2nc(-c3cn4ccnc4c(Cc4ccc(F)c(F)c4)n3)nc(N)c21` (stereo not drawn) [Example 20-A, 4-Amino-5-(4-chloro-3-hydroxyphenyl)-2-{8-[(3,4-difluorophenyl)methyl]imidazo[1,2-a]pyrazin-6-yl}-5-methyl-5,7-dihydro-6H-pyrrolo[2,3-d]pyrimidin-6-one], at sGC α1/β1 heterodimer, the Emax is 130% and the EC50 was found to be 127 nM. In assay [1], the Ki was determined as 0.173 nM.
For `CC1(c2cccc(O)c2)C(=O)Nc2nc(-c3cn4ccnc4c(CC4CCCCC4)n3)nc(N)c21` (stereo not drawn) [Example 82-B, 4-Amino-2-(8-(cyclohexylmethyl)imidazo[1,2-a]pyrazin-6-yl)-5-(3-hydroxyphenyl)-5-methyl-5,7-dihydro-6H-pyrrolo[2,3-d]pyrimidin-6-one], in that order: 111%, 207 nM and 0.402 nM.
With `CC1(c2cc(O)c(Cl)c(F)c2)C(=O)Nc2nc(-c3cn4ccnc4c(Cc4cc(F)cc(F)c4)n3)nc(N)c21` (stereo not drawn) [Example 16-B, 4-Amino-5-(4-chloro-3-fluoro-5-hydroxyphenyl)-2-{8-[(3,5-difluorophenyl)methyl]imidazo[1,2-a]pyrazin-6-yl}-5-methyl-5,7-dihydro-6H-pyrrolo[2,3-d]pyrimidin-6-one], on sGC α1/β1 heterodimer, the Emax was determined as 94% and the EC50 amounted to 308 nM. Also, the Ki in assay [1] is 0.158 nM.
For `Cc1cn2cc(-c3nc(N)c4c(n3)NC(=O)C4(C)c3ccc(Cl)c(O)c3)nc(Cc3cccc(F)c3)c2n1` (stereo not drawn) [Example 99-A, 4-Amino-5-(4-chloro-3-hydroxyphenyl)-2-{8-[(3-fluorophenyl)methyl]-2-methylimidazo[1,2-a]pyrazin-6-yl}-5-methyl-5,7-dihydro-6H-pyrrolo[2,3-d]pyrimidin-6-one], in that order: 97%, 553 nM and 0.803 nM.
In the same order, the values of `CC1(c2cc(O)ccn2)C(=O)Nc2nc(-c3cn4ncnc4c(Cc4cccc(F)c4)n3)nc(N)c21` (stereo not drawn) [Example 110-B, 4-Amino-2-{8-[(3-fluorophenyl)methyl]-[1,2,4]triazolo[1,5-a]-pyrazin-6-yl}-5-(4-hydroxypyridin-2-yl)-5-methyl-5,7-dihydro-6H-pyrrolo[2,3-d]pyrimidin-6-one] are 159%, 437 nM and 1.62 nM.

As a reminder, the Ki is a measure of affinity in units of concentration, obtained from inhibition or displacement.
